Our source for the IC50 values is US9238647B2, “P2X3 receptor antagonists for treatment of pain” (Merck Sharp & Dohme Corp., priority 2009, dated 2016).

This experiment deals with T1, human P2X3 (Homo sapiens, UniProt P56373).
T1 construct: expressed in transfected cells
T1 sequence (P56373 1-397): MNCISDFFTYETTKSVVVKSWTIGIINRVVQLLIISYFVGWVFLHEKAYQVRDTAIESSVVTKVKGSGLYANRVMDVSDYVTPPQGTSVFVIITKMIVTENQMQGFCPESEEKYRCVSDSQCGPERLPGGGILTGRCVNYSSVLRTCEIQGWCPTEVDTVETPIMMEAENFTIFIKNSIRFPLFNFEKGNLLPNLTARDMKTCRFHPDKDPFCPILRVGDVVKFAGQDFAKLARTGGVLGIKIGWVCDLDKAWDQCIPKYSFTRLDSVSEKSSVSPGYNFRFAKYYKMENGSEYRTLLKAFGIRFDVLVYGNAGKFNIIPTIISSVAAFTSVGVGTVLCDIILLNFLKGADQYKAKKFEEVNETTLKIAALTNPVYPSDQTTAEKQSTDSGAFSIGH
Description: Intracellular Calcium Measurement to Assess Antagonist Affinity (FLIPR, Fluo-4, α,β-meATP agonist). The experiment is classed as cell-based. As to conditions: cells expressing human P2X3; agonist α,β-meATP at EC50; antagonist added 10 min before agonist. The source says: Generation of a Human P2X3 and P2X2/3 Stable Cell Line—Human P2X3 receptor cDNA (Accession number NM_002559) was subcloned as a 5′XhoI and 3′HindIII fragment into the expression vector pcDNA5/FRT (Invitrogen). Human P2X2 receptor cDNA (Accession number NM_174873) was subcloned as a 5′EcoRI and 3′NotI fragment into the expression vector pIRESneo2 (BD Biosciences Clontech). The human P2X3 expression construct was transfected using Lipofectamine 2000 (Invitrogen) into Flp-in-293 cells (Invitrogen) according to the manufacturer's directions. Cells positive for flp-mediated recombination of […] P2X3 were selected using 150 μg/ml hygromycin. […]
Intracellular Calcium Measurement to Assess Antagonist Affinity—A fluorescent imaging plate reader (FLIPR; Molecular Devices) was used to monitor intracellular calcium levels using the calcium-chelating dye Fluo-4 (Molecular Probes). The excitation and emission wavelengths used to monitor fluorescence were 488 nm and 530 nm, respectively. […] During this period fluorescence data is collected at 3 sec intervals followed by 10 sec intervals. […] Following agonist addition fluorescence was measured at 5 sec intervals and analyzed based on the increase in peak relative fluorescence units (RFU) compared to the basal fluorescence. […]

Usually IC50 stands for the concentration needed to halve the response being measured. Take `Cc1ccc(-c2cc(C(=O)N[C@H](C)c3ccc(C(F)(F)F)nc3)cc3nncn23)cc1` [Example 4.3, 5-(4-Methylphenyl)-N-{(1R)-1-[6-(trifluoromethyl)pyridin-3-yl]ethyl}[1,2,4]triazolo[4,3-a]pyridine-7-carboxamide]: the IC50 is 200 nM.
